Assay results: patent US10883137B2, “Method to detect activity of a polymerase” (MAX-PLANCK-GESELLSCHAFT ZUR FÖRDERUNG DER WISSENSCHAFTEN …, priority 2015, dated 2021)

T1: human mitochondrial DNA-polymerase (POLG) (Homo sapiens, UniProt P54098)
T1 sequence (P54098 1-1239): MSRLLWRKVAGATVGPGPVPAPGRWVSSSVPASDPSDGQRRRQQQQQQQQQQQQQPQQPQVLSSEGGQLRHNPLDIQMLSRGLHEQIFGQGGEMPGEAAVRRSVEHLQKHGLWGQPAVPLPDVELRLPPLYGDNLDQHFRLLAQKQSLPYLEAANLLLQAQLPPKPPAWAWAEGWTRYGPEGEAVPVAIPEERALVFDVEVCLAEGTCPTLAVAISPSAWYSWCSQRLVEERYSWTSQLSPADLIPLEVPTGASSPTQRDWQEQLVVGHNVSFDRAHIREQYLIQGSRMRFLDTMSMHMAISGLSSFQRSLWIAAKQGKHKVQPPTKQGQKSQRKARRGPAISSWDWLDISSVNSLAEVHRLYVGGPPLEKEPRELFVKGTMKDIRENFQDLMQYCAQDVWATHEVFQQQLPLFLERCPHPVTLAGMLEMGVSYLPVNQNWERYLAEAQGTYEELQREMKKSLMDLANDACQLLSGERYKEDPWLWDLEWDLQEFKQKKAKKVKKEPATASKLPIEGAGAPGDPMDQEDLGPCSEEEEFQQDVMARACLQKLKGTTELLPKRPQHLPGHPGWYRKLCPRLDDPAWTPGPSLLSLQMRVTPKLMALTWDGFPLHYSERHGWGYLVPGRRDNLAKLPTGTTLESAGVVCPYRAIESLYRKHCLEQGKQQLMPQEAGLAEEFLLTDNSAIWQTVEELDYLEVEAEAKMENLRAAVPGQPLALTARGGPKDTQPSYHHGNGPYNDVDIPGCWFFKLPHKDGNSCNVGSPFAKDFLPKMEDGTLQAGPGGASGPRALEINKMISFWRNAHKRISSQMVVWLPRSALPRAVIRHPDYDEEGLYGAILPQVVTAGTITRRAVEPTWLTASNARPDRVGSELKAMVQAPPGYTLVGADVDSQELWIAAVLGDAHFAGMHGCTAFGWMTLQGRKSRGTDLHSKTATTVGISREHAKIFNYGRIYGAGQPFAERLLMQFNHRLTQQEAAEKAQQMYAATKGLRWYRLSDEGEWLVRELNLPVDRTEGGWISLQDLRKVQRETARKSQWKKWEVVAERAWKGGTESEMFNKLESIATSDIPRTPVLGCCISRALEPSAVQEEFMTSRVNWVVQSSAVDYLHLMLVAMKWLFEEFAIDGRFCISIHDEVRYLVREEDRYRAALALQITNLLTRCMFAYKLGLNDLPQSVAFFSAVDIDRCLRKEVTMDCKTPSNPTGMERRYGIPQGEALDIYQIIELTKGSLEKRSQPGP
T1 sequence (Q9UHN1 1-485 partner): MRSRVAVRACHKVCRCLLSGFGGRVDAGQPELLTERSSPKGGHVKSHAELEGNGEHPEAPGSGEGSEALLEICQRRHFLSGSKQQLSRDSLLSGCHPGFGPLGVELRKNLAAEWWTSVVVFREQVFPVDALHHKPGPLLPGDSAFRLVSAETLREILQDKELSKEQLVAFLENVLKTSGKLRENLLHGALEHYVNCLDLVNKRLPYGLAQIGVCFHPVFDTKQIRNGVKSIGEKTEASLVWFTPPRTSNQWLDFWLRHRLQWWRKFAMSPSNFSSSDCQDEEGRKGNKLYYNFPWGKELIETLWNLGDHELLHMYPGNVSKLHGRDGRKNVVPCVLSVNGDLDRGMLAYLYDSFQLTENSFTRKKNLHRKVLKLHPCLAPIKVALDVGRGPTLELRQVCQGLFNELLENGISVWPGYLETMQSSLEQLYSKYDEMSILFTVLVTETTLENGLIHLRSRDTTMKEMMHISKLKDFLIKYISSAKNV

B1: TEFM: mitochondrial transcription elongation factor (TEFM, NP_078959.3) (protein, UniProt Q96QE5 36-360, looked up)
Transcription elongation …: KSTTPKKITPNVTFCDENAKEPENALDKLFSSEQQASILHVLNTASTKELEAFRLLRGRRSINIVEHRENFGPFQNLESLMNVPLFKYKSTVQVCNSILCPKTGREKRKSPENRFLRKLLKPDIERERLKAVNSIISIVFGTRRIAWAHLDRKLTVLDWQQSDRWSLMRGIYSSSVYLEEISSIISKMPKADFYVLEKTGLSIQNSSLFPILLHFHIMEAMLYALLNKTFAQDGQHQVLSMNRNAVGKHFELMIGDSRTSGKELVKQFLFDSILKADPRVFFPSDKIVHYRQMFLSTELQRVEELYDSLLQAIAFYELAVFDSQP

How the values were obtained:
Type in all cases: biochemical
[1] = biological target: human POLRMT (mitochondrial DNA-directed RNA polymerase) (Homo sapiens, UniProt O00411); experiment: Inhibitor activity determination, mitochondrial RNA-polymerase, 384-well dose-response format; conditions: for IC50: 384-well, 8-point dilution series, 200 μM to 5 μM, 500 μM dNTPs; for Hill slope: four-parameter non-linear regression fit; for res. activity at highest conc.: highest assay conc. 200 μM; for res. activity at highest conc. / res. activity at lowest conc.: relative to positive control; for res. activity at lowest conc.: lower limit of 5 μM
Chain of human POLRMT (mitochondrial DNA-directed RNA polymerase) (O00411 42-1230): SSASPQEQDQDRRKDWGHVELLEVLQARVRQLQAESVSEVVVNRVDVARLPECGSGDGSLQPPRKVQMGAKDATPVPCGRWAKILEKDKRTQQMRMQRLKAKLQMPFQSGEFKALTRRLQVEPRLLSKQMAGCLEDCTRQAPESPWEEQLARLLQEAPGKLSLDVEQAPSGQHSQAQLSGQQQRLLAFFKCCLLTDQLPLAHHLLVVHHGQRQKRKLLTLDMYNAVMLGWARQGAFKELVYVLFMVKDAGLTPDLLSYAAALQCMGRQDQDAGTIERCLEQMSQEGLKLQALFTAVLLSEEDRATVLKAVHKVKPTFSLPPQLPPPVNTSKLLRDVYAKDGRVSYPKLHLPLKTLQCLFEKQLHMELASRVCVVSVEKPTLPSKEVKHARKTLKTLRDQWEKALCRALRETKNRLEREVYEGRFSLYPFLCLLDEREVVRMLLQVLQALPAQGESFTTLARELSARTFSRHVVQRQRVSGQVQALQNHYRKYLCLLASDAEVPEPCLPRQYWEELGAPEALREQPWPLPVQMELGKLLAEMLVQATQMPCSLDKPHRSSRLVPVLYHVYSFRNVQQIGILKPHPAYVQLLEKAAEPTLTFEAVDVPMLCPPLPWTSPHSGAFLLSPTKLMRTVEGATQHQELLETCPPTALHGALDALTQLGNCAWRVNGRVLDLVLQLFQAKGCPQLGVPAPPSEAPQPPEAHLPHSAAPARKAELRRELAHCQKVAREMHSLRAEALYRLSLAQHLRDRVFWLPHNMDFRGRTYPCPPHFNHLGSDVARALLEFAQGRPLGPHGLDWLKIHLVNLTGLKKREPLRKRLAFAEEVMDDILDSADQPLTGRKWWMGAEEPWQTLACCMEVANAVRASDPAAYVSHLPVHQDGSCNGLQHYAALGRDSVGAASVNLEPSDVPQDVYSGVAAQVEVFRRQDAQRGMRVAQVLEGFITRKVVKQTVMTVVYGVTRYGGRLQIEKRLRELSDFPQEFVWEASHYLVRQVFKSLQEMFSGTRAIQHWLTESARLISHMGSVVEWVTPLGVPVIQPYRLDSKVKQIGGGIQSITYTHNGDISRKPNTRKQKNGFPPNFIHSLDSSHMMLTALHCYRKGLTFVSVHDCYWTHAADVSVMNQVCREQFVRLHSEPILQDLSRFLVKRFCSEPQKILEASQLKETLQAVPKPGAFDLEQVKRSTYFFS
Text: The assay protocol largely corresponds to the setup described in example 1 (Determination of activity of mitochondrial RNA-polymerase using the same initiator and probes than in example 1). For determination of the activity, however, the reaction mix always contains the nucleotide triphosphate mix, to enforce potential competition between inhibitor compound and substrate. Negative control samples are set up such that no template DNA (pUC-LSP) is included in the reaction mixture.
Pre-diluted protein samples are mixed with the dNTP-mixture in a reaction buffer, containing 10 mM TrisHCl pH 7.5, 10 mM MgCl2, 40 mM NaCl, 2 mM GSH, 0.01% (w/v) Tween-20 and 0.1 mg/mL BSA, to yield final assay concentrations of 7.5 nM (POLRMT), 90 nM (TFAM), 20 nM (TFB2M) and 500 μM (dNTPs). 5 μL of this mix are dispensed, depending on the chosen microtiter plate format, using multi-channel pipettes or a Thermo Multidrop® dispenser into the wells of a microtiter plate and incubated at room-temperature (RT) for 10 minutes.
Equal amounts of DMSO without any compound are added to positive control samples. An incubation step at RT for 10 minutes is applied to allow binding of compounds.
The enzymatic reaction is started by the addition of 5 μL of a mix of template DNA (pUC-LSP) in reaction buffer to a final concentration of 0.5 nM. The following mixing, incubation and detection steps correspond to the steps described in example 1.

[2] = biological target: T1, human mitochondrial DNA-polymerase (POLG); experiment: Inhibitor activity determination using human mitochondrial DNA-polymerase, 384-well dose-response format
Text: The assay protocol largely corresponds to the setup described in example 1 (Determination of activity of mitochondrial RNA-polymerase using the same initiator and probes than in example 1). For determination of the activity of the mitochondrial replication, however, the two-subunit complex of the mitochondrial DNA-polymerase (POLG, NM_002693.2, NM_007215.3), the […] TWINKLE (NM_021830.4) and mitochondrial single-strand binding protein (SSBP1, NM_001256510.1) are used. Also, the reaction mix always contains the substrate nucleotide mix, to enforce potential competition between inhibitor compound and substrate.
For DNA-replication the template is generated using a circular, single-stranded DNA formed from pBlueskript SK+. To this circular, ssDNA, a primer with 42-nucleotide poly-T is annealed to form a fork structure. To make dsDNA, the primer is elongated with KOD polymerase, which synthesizes DNA around the entire circle, until again it reaches the primer. At this point DNA-synthesis stops and a double-stranded DNA template of about 3000 bp with an artificial replication fork is formed.
For activity determination, negative control samples are set up such that no template DNA is included in the assay mixture. Assay components are mixed in a buffer containing 25 mM TrisHCl pH 8.0, 5 mM MgCl2, 2 mM GSH, and 0.1 mg/mL BSA, to yield final assay concentrations of 30 nM POLG, 15 nM TWINKLE, 20 nM SSBP1, 250 μM dNTPs, 4 mM ATP as well as the two DNA-probes at 3 nM concentration each.
5 μL of this mix are dispensed, depending on the chosen microtiter plate format, using multi-channel pipettes or a Thermo Multidrop® dispenser into the wells of a microtiter plate and incubated at room-temperature (RT) for 10 minutes.
Chemical compounds under scrutiny in the assay are applied using contact-free acoustic droplet-dispensing (Labcyte Echo®) from 10 mM compound stocks (in 100% DMSO) in an appropriate 8-point dilution series to ensure accurate fitting of the resulting activity data (i.e. upper and lower asymptote reached). Equal amounts of DMSO without any compound are added to positive control samples. An incubation step at RT for 10 minutes is applied to allow binding of compounds.
The enzymatic reaction is started by the addition of 5 μL of a mix template DNA in reaction buffer to a final concentration of 5 nM. Following incubation for 1 h at 37° C., the reaction is stopped by addition of a detection mix, containing 3 nM streptavidin-coupled Eu-cryptate pre-incubated with an excess of an unspecific random oligonucleotide, in 20 mM Tris-HCl pH 8.0, 400 mM NaCl and 50 mM EDTA. HTRF-signals are measured following over-night incubation at room-temperature. […]

[3] = biological target: mitochondrial RNA-polymerase (POLRMT) (Homo sapiens, UniProt O00411); experiment: Activity of mitochondrial RNA-polymerase with and without TEFM (in vitro transcription, FRET detection); conditions: TEFM 100 nM; product formation quenched after 2 h
Chain of mitochondrial RNA-polymerase (POLRMT) (O00411 42-1230): as above
Protocol: FIG. 8: is displaying the result of a comparative study of the effect of adding TEFM to the in vitro transcription reaction, as described in example 6. Two transcription reactions were set up either with or without the addition of TEFM (100 nM) and product formation quenched after 2 h. The specific FRET signal of the reaction without TEFM was used as a reference and normalized to 100%, while for the reaction including TEFM a signal increase of around 18% (±10%) was measured under the chosen conditions.
To enhance the enzymatic turnover and, thus, specific signal intensity of the mitochondrial in vitro transcription reaction, the mitochondrial transcription elongation factor (TEFM, NP_078959.3.) can be added to the assay reagent mixture.
The general workflow of the assay and composition of assay reagents are described in Posse et al (Nucl. Acids Res. 2015). A linearized pUC18 plasmid comprising the human mitochondrial light-strand promotor sequence (LSP) is used as transcription plasmid.
Adaptations made to the original protocol relate to the different detection method applied and correspond to the set-up described in example 1.

Row | Molecule | IC50 [1] [µM] | Hill slope [1] | res. activity at highest conc. [1] [%] | res. activity at lowest conc. [1] [%] | IC50 ([2]; 384-well, 200 μM to 5 μM, 250 μM dNTPs) [µM] | Hill slope ([2]; four-parameter non-linear regression fit) | res. activity at highest conc. ([2]; highest assay conc. 200 μM) [%] | res. activity at lowest conc. ([2]; lower limit of 5 μM) [%] | signal increase of specific FRET signal versus reaction without TEFM (100%) [3]
1 | 2′methyl/OH-O-UTP | 84.5 | −0.85 | 8.6 | 102 | – | – | – | – | –
2 | C[C@@]1(O)[C@H](O)[C@@H](COP(=O)(O)OP(=O)(O)OP(=O)(O)O)O[C@H]1n1cnc2c(=O)[nH]c(N)nc21 [2′methyl/OH-GTP] | – | −2.05 | 65.5 | 96.5 | – | – | – | – | –
3 | C[C@@]1(F)[C@H](O)[C@@H](COP(=O)(O)OP(=O)(O)OP(=O)(O)O)O[C@H]1n1cnc2c(=O)[nH]c(N)nc21 [2′methyl/F-GTP] | 73.4 | −2.15 | 46.9 | 88.32 | – | – | – | – | –
4 | Cc1cn([C@H]2C[C@H](O)[C@@H](COP(=O)(O)OP(=O)(O)OP(=O)(O)O)O2)c(=O)[nH]c1=S [4-Thiothymidine-5′-Triphosphate] | – | – | – | – | 54.1 | −0.9462 | 22.6 | 92.79 | –
5 | B1 | – | – | – | – | – | – | – | – | around 18%
